# Measured values taken from ChEMBL document CHEMBL4265969, “Design, synthesis and biological evaluation of (2S,3R,4R,5S,6R)-5-fluoro-6-(hydroxymethyl)-2-aryltetrahydro-2H-pyran-3,4-diols as potent and orally active SGLT dual inhibitors” (Bioorg Med Chem Lett, 2018).
# System: not listed separately
# Assay: Half life in Sprague-Dawley rat hepatocytes at 1 uM
# Format: ADME, cell-based, Hepatocyte
# Conditions: not given
row,SMILES,half-life at 1 µM
1,O=C(O)Cc1ccccc1Nc1c(Cl)cccc1Cl [DICLOFENAC],0.8 h

# System: not listed separately
# Assay: Half life in Sprague-Dawley rat at 10 mg/kg, po
# Format: ADME, organism-based
# Conditions: in vivo
row,SMILES,half-life
1,Cc1cc(O)c([C@@H]2O[C@H](CO)[C@@H](F)[C@H](O)[C@H]2O)cc1Cc1cc2c(s1)CCN(C#N)C2,1.44 h

# System: not listed separately
# Assay: Metabolic stability in mouse liver microsomes at 1 uM after 10 mins in presence of NADPH
# Format: ADME, microsome
# Conditions: read-out: Stability
row,SMILES,"remaining at 10 min, 1 µM"
1,Cc1cc(O)c([C@@H]2O[C@H](CO)[C@@H](F)[C@H](O)[C@H]2O)cc1Cc1cc2c(s1)CCN(C#N)C2,91%
2,Cc1cc(O)c([C@@H]2O[C@H](CO)[C@@H](F)[C@H](O)[C@H]2O)cc1Cc1cc2c(s1)CCN(C(=O)c1nccs1)C2,66%
3,COc1c(Cc2ccc3c(c2)OCCO3)cc([C@@H]2O[C@H](CO)[C@@H](F)[C@H](O)[C@H]2O)c2c1CCO2,94%
4,CCOC(=O)N1CCc2sc(Cc3cc([C@@H]4O[C@H](CO)[C@@H](F)[C@H](O)[C@H]4O)c(O)cc3C)cc2C1,86%
5,COc1c([C@@H]2O[C@H](CO)[C@@H](F)[C@H](O)[C@H]2O)cc(Cc2ccc3c(c2)SCCO3)c2c1CCO2,61%
6,Cc1cc(O)c([C@@H]2O[C@H](CO)[C@@H](F)[C@H](O)[C@H]2O)cc1Cc1cc2c(s1)CCN(C(=O)N1CCCC1)C2,74%

# System: not listed separately
# Assay: Volume of distribution at steady state in Sprague-Dawley rat at 2 mg/kg, iv
# Format: ADME, organism-based
# Conditions: in vivo, read-out: Vdss
row,SMILES,Vd
1,Cc1cc(O)c([C@@H]2O[C@H](CO)[C@@H](F)[C@H](O)[C@H]2O)cc1Cc1cc2c(s1)CCN(C#N)C2,3.79 L/kg

# System: not listed separately
# Assay: Tmax in Sprague-Dawley rat at 10 mg/kg, po
# Format: ADME, organism-based
# Conditions: in vivo
row,SMILES,Tmax
1,Cc1cc(O)c([C@@H]2O[C@H](CO)[C@@H](F)[C@H](O)[C@H]2O)cc1Cc1cc2c(s1)CCN(C#N)C2,2.2 h

# System: not listed separately
# Assay: AUC (0 to infinity) in Sprague-Dawley rat at 10 mg/kg, po
# Format: ADME, organism-based
# Design: dose 10 mg/kg, route oral, time infinity
# Conditions: in vivo
row,SMILES,AUC(0-inf)
1,Cc1cc(O)c([C@@H]2O[C@H](CO)[C@@H](F)[C@H](O)[C@H]2O)cc1Cc1cc2c(s1)CCN(C#N)C2,0.0446 µg·h/mL

# System: not listed separately
# Assay: Metabolic stability in rat liver microsomes at 1 uM after 10 mins in presence of NADPH
# Format: ADME, microsome
# Conditions: read-out: Stability
row,SMILES,"remaining at 10 min, 1 µM"
1,Cc1cc(O)c([C@@H]2O[C@H](CO)[C@@H](F)[C@H](O)[C@H]2O)cc1Cc1cc2c(s1)CCN(C#N)C2,79%
2,Cc1cc(O)c([C@@H]2O[C@H](CO)[C@@H](F)[C@H](O)[C@H]2O)cc1Cc1cc2c(s1)CCN(C(=O)c1nccs1)C2,91%
3,COc1c(Cc2ccc3c(c2)OCCO3)cc([C@@H]2O[C@H](CO)[C@@H](F)[C@H](O)[C@H]2O)c2c1CCO2,2%
4,CCOC(=O)N1CCc2sc(Cc3cc([C@@H]4O[C@H](CO)[C@@H](F)[C@H](O)[C@H]4O)c(O)cc3C)cc2C1,78%
5,COc1c([C@@H]2O[C@H](CO)[C@@H](F)[C@H](O)[C@H]2O)cc(Cc2ccc3c(c2)SCCO3)c2c1CCO2,12%
6,Cc1cc(O)c([C@@H]2O[C@H](CO)[C@@H](F)[C@H](O)[C@H]2O)cc1Cc1cc2c(s1)CCN(C(=O)N1CCCC1)C2,82%

# System: not listed separately
# Assay: Clearance in Sprague-Dawley rat at 2 mg/kg, iv
# Format: ADME, organism-based
# Conditions: in vivo
row,SMILES,clearance
1,Cc1cc(O)c([C@@H]2O[C@H](CO)[C@@H](F)[C@H](O)[C@H]2O)cc1Cc1cc2c(s1)CCN(C#N)C2,8.94 L/h/kg

# System: not listed separately
# Assay: Half life in dog hepatocytes at 1 uM
# Format: ADME, cell-based, Canis lupus familiaris, Hepatocyte
# Conditions: not given
row,SMILES,half-life at 1 µM
1,O=C(O)Cc1ccccc1Nc1c(Cl)cccc1Cl [DICLOFENAC],5.2 h

# System: not listed separately
# Assay: Half life in monkey hepatocytes at 1 uM
# Format: ADME, cell-based, Macaca mulatta, Hepatocyte
# Conditions: rhesus monkey
row,SMILES,half-life at 1 µM
1,O=C(O)Cc1ccccc1Nc1c(Cl)cccc1Cl [DICLOFENAC],1 h

# Molecular target: T1, Sodium/glucose cotransporter 2 (Homo sapiens, UniProt P31639)
# T1 sequence (P31639 whole entry): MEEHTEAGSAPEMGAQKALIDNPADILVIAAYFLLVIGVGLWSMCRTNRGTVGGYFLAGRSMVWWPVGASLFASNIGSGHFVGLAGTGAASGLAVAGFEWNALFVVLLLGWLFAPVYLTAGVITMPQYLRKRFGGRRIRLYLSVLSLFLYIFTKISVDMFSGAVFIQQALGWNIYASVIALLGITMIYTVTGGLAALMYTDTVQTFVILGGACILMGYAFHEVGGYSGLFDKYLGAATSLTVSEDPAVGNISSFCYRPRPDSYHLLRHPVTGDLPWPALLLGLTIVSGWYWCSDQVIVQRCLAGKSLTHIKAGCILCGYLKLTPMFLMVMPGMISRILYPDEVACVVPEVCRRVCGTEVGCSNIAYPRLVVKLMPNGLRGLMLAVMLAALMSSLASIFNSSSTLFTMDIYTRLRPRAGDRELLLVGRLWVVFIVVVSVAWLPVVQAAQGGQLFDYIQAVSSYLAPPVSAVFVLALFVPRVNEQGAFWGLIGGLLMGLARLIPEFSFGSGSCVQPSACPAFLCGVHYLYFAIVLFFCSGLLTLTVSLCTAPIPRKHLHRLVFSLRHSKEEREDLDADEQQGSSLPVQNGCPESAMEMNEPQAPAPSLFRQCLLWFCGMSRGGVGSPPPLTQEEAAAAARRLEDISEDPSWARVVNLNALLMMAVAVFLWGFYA
# Assay: Inhibition of human kidneyl SGLT2 expressed in CHOK1 cells assessed as reduction in Na-dependent [14C]-AMG uptake preincubated for 10 mins followed by [14C]-AMG addition measured after 2 hrs by TopCount method
# Format: cell-based
# Conditions: not given
row,SMILES,IC50
1,Cc1cc(O)c([C@@H]2O[C@H](CO)[C@@H](F)[C@H](O)[C@H]2O)cc1Cc1cc2c(s1)CCN(C#N)C2,2.6 nM
2,COc1c(Cc2ccc3c(c2)OCCO3)cc([C@@H]2O[C@H](CO)[C@@H](F)[C@H](O)[C@H]2O)c2c1CCO2,7.5 nM
3,COc1c([C@@H]2O[C@H](CO)[C@@H](F)[C@H](O)[C@H]2O)cc(Cc2ccc3c(c2)SCCO3)c2c1CCO2,8.3 nM
4,Cc1cc(O)c([C@@H]2O[C@H](CO)[C@@H](F)[C@H](O)[C@H]2O)cc1Cc1cc2c(s1)CCN(C(=O)N1CCCC1)C2,13.6 nM

# System: not listed separately
# Assay: Cmax in Sprague-Dawley rat at 10 mg/kg, po
# Format: ADME, organism-based
# Design: dose 10 mg/kg, route oral
# Conditions: in vivo
row,SMILES,Cmax
1,Cc1cc(O)c([C@@H]2O[C@H](CO)[C@@H](F)[C@H](O)[C@H]2O)cc1Cc1cc2c(s1)CCN(C#N)C2,0.0137 µg/mL

# System: not listed separately
# Assay: Half life in human hepatocytes at 1 uM
# Format: ADME, cell-based, Hepatocyte
# Conditions: not given
row,SMILES,half-life at 1 µM
1,O=C(O)Cc1ccccc1Nc1c(Cl)cccc1Cl [DICLOFENAC],0.7 h

# System: not listed separately
# Assay: Metabolic stability in human liver microsomes at 1 uM after 10 mins in presence of NADPH
# Format: ADME, microsome
# Conditions: read-out: Stability
row,SMILES,"remaining at 10 min, 1 µM"
1,Cc1cc(O)c([C@@H]2O[C@H](CO)[C@@H](F)[C@H](O)[C@H]2O)cc1Cc1cc2c(s1)CCN(C#N)C2,95%
2,Cc1cc(O)c([C@@H]2O[C@H](CO)[C@@H](F)[C@H](O)[C@H]2O)cc1Cc1cc2c(s1)CCN(C(=O)c1nccs1)C2,69%
3,COc1c(Cc2ccc3c(c2)OCCO3)cc([C@@H]2O[C@H](CO)[C@@H](F)[C@H](O)[C@H]2O)c2c1CCO2,91%
4,CCOC(=O)N1CCc2sc(Cc3cc([C@@H]4O[C@H](CO)[C@@H](F)[C@H](O)[C@H]4O)c(O)cc3C)cc2C1,80%
5,COc1c([C@@H]2O[C@H](CO)[C@@H](F)[C@H](O)[C@H]2O)cc(Cc2ccc3c(c2)SCCO3)c2c1CCO2,73%
6,Cc1cc(O)c([C@@H]2O[C@H](CO)[C@@H](F)[C@H](O)[C@H]2O)cc1Cc1cc2c(s1)CCN(C(=O)N1CCCC1)C2,71%

# System: not listed separately
# Assay: Half life in Sprague-Dawley rat at 2 mg/kg, iv
# Format: ADME, organism-based
# Conditions: in vivo
row,SMILES,half-life
1,Cc1cc(O)c([C@@H]2O[C@H](CO)[C@@H](F)[C@H](O)[C@H]2O)cc1Cc1cc2c(s1)CCN(C#N)C2,0.99 h

# System: not listed separately
# Assay: Oral bioavailability in Sprague-Dawley rat at 10 mg/kg
# Format: ADME, organism-based
# Conditions: in vivo
row,SMILES,bioavailability
1,Cc1cc(O)c([C@@H]2O[C@H](CO)[C@@H](F)[C@H](O)[C@H]2O)cc1Cc1cc2c(s1)CCN(C#N)C2,5%
